Measured values: patent publication US10918648B2, “Estrogen receptor modulator combinations” (The Regents of the University of California, priority 2016, dated 2021)

Assays:
[1] = system: MAPK: ERK-1 (p44) and ERK-2 (p42); experiment: Estrogen-induced MAPK phosphorylation, Western blot in MCF-7 cells; type: cell-based, human; settings: MCF-7 parent cells, 1 nM estradiol (E2); antagonists pre-incubated at 1000 nM; FIG. 7A
Experimental: ERD inhibition of phosphorylation of MAPK, at both extracellular signal-regulated kinases ERK-1 (p44) and ERK-2 (p42) and downstream effects. […] Thus, we measured estrogen-induced phosphorylation of MAPK by established methods (9,15,16). Briefly, MCF-7 parental cells were estrogen deprived for 48 hrs, then treated with 1 nM estradiol-1713 in the presence of new compounds (10 nM-10 μM) to be tested for antagonist activity. After treatments, cell lysates were separated by SDS-PAGE followed by Western blot using a polyclonal antibody directed to phospho-p44/p42 MAP kinase (Thr202/Tyr204) (Cell Signaling). Immunodetection with antibody against total p44/p42 (Cell Signaling) was done as a control for gel loading. […] ERD S15 was as effective as fulvestrant in inhibiting the rapid estrogen-induced MAPK phosphorylation in breast tumor cells in vitro. […] E2 but not vehicle (CN) induced rapid phosphorylation of ERK-1 (p44) and ERK-2 (p42). This activation was prevented when cells were pre-incubated with 1000 nM ICI 182,780 (ICI; Faslodex) or 1000 nM compound S15 in the presence of estradiol (E2).

estrogen receptor = target: T1, estrogen receptor (Homo sapiens, UniProt P03372); experiment: Specific [3H]estradiol-17β binding by MCF-7 parental cells; settings: 2 nM [3H]estradiol-17β, compounds at 10 μM, FIG. 5A
T1 construct: endogenous in cells; host or cells: MCF-7 parental (MCF-7/CON) human breast cancer cells
T1 sequence (P03372 1-595): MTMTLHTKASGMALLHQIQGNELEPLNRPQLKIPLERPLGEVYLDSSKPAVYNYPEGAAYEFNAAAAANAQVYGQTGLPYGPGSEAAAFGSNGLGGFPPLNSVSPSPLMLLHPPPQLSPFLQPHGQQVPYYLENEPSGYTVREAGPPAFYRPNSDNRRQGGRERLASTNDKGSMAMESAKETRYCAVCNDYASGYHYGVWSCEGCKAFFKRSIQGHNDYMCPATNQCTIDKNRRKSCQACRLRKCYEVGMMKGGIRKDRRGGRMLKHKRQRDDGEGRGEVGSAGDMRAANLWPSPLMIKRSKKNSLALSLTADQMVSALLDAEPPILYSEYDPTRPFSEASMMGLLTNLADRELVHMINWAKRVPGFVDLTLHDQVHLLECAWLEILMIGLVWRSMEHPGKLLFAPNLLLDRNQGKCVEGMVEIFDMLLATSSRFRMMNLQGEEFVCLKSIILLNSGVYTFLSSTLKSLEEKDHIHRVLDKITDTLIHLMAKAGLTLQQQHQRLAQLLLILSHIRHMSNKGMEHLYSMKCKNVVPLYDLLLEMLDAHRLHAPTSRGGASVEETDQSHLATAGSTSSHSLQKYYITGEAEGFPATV
Experimental: Specific estradiol binding: Specific estradiol-17β (E2) binding was assessed in MCF-7 parental breast cancer cells as before (14-16). […] MCF-7 cells were incubated with 2 nM [^3H]estradiol-17β and antiestrogens (all at 10 μM concentration; numbers Si to S15), with ICI 182,780 (ICI; fulvestrant) used as a control (n=3). Compounds S1-S14 are test compounds different from the exemplified compounds described herein.

cleaved PARP = experiment: PARP cleavage, Western blot in A549 cells; type: cell-based, human; settings: A549 cells, 0.01, 0.1 and 1 μM, 4 hours, 5% DCC-FBS; FIG. 2B
Experimental: FIG. 2B. […] A549 cells were treated in 5% DCC-FBS phenol-red free RPMI1640 with vehicle control (C) or increasing concentrations of JD140 at 0.01, 0.1 and 1 μM or 0.1 μM fulvestrant (F) for 4 hours. Western Blots were performed using anti-cleaved-PARP antibody (Cell Signaling Technology). RPL13A is shown as loading control. The Western blot is representative of 3 independent experiments.
We next assessed the effect of SERD compound 140 on the stimulation of NSCLC cell apoptosis by measurement of PARP cleavage at increasing drug doses (see FIG. 2B).
Gel electrophoresis and immunoblotting: Breast and lung tumor cells were treated in phenol-red free RPMI1640/DMEM with 5% DCC-FBS (26). After selected treatments cells were homogenized in the presence of protease inhibitors using RIPA buffer (Thermo Scientific). All procedures were performed in ice, lysates were centrifuged and protein concentration quantified in the supernatants using a Thermo Scientific® BCA protein assay kit. Approximately 20-60 μg of total protein were heated in the presence of Laemmli sample buffer (Biorad) to 100° C. for 10 min and loaded it on a gradient TGX gel 4-15% (Biorad). Gels were transferred to PVDF membranes for immunoblotting. Membranes were blocked either with 5% milk in Tris Buffer Saline with 0.1% Tween 20 or protein-free blocking solution (Thermo Scientific). […]

C[C@]12C[C@H](Oc3ccc(N)cc3)[C@@H]3c4ccc(O)cc4CC[C@H]3[C@@H]1CC[C@@H]2O [JD105, (8S,9S,11S,13S,14S,17S)-11-(4-aminophenoxy)-13-methyl-7,8,9,11,12,13,14,15,16,17-decahydro-6H-cyclopenta[a]phenanthrene-3,17-diol]
phosphorylation of MAPK (ERK-1 p44 and ERK-2 p42) [1]: inhibits phosphorylation of MAPK
specific binding of [3H]estradiol-17β (estrogen receptor): suppressed
specific binding of [3H]estradiol-17β (estrogen receptor; listed as S15): suppressed effectively

C[C@]12C[C@H](Oc3ccc(NC(=O)CCCCN4CCCCC4)c(F)c3)[C@@H]3c4ccc(O)cc4CC[C@H]3[C@@H]1CC[C@@H]2O [JD140, N-(4-(((8S,9S,11S,13S,14S,17S)-3,17-Dihydroxy-13-methyl-7,8,9,11,12,13,14,15,16,17-deca-hydro-6H-cyclopenta[a]phenanthren-11-yl)oxy)-2-fluorophenyl)-5-(piperidin-1-yl)pentan-amide]
PARP cleavage (cleaved PARP): enhanced PARP cleavage
